Test results reported in paper PMC12198407, “Preclinical and first-in-human of purinostat mesylate, a novel selective HDAC I/IIb inhibitor, in relapsed/refractory multiple myeloma and lymphoma” (Signal Transduction and Targeted Therapy, 2025).
Where two headings read alike, the source gives them in different places.

Legend:
[1] = Acute toxicity test, intravenous; type: in vivo, Beagle dogs
Description: In this study, the designed doses were 10 and 50 mg/kg administered intravenously. […] The maximum tolerated dose (MTD) was determined to be 10 mg/kg.

HDAC4 = HDAC4 (Homo sapiens, UniProt P56524); experiment: HDAC enzyme activity in vitro; type: biochemical
Sequence of HDAC4 (P56524 whole entry): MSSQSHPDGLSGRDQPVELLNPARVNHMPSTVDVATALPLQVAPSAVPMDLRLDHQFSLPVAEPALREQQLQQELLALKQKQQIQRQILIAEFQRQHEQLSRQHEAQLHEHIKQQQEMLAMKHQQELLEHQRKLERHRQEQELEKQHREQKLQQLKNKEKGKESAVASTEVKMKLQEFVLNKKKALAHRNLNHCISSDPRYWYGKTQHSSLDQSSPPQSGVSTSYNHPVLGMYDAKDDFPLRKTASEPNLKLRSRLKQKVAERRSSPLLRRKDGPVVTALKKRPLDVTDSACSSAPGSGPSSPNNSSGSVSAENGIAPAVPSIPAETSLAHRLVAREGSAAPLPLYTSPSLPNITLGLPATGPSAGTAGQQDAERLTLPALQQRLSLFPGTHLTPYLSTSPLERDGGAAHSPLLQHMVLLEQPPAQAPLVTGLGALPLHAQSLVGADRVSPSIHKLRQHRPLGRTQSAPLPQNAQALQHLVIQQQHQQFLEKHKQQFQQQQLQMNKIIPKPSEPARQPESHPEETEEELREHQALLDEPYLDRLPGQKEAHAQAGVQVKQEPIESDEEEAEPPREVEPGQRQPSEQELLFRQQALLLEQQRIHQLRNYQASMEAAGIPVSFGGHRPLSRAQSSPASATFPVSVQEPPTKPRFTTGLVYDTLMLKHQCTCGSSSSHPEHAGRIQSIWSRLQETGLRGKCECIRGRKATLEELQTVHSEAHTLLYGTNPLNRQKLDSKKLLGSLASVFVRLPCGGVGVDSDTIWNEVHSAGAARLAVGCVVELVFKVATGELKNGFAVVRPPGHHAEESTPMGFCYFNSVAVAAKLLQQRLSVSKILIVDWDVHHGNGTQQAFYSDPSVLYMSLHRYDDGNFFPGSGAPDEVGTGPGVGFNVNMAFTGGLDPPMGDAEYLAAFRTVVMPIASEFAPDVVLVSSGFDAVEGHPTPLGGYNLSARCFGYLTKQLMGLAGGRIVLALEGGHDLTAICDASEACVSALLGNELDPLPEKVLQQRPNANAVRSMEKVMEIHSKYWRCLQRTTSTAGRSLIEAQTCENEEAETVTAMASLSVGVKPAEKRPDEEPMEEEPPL

[2] = test system: hematological tumor cells; experiment: Proliferation, MTT or Alamar Blue; type: cell-based; conditions: Homo sapiens
Solubility of the API = type: physicochemical
[3] = test system: BCR-ABL positive B-ALL PDX; experiment: PDX model of clinical B-ALL patient; type: in vivo, NOD/SCID mice
Description: A clinical sample from a B-ALL patient was obtained, characterized by BCR-ABL positivity and relapse after first-line treatment.

HDAC7 = HDAC7 (Homo sapiens, UniProt Q8WUI4); experiment: HDAC enzyme activity in vitro; type: biochemical
Sequence of HDAC7 (Q8WUI4 whole entry): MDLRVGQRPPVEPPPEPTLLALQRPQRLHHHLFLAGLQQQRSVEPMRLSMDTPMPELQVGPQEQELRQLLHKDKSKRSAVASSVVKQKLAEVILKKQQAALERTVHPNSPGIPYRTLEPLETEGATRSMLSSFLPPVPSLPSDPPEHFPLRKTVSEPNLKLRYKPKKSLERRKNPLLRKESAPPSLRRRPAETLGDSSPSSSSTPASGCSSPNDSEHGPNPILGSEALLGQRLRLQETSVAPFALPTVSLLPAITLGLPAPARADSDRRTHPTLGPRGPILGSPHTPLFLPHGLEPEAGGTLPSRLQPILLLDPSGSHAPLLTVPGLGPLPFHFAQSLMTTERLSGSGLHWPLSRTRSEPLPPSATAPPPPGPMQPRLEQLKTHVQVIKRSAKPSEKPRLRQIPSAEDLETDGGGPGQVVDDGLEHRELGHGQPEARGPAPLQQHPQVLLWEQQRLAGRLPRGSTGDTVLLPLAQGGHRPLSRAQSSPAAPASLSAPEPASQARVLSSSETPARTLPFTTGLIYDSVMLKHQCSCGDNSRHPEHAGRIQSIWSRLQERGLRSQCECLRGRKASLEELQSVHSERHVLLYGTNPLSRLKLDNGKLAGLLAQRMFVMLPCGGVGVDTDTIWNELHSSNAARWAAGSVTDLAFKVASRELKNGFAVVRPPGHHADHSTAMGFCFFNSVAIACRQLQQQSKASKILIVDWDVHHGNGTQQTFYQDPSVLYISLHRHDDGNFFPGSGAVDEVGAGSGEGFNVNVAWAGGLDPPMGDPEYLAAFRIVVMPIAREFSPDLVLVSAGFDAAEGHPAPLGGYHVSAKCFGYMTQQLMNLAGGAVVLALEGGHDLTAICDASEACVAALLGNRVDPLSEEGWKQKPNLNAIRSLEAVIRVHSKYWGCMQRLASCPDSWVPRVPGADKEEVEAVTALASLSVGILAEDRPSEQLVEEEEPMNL

[4] = Systemic active allergic test; type: in vivo, guinea pigs; conditions: 0.204 and 0.612 mg/mL
Description: This experiment included a negative control group, a positive control group, a blank formulation group of injectable Purinostat Mesylate, and low and high dose groups of injectable Purinostat Mesylate, with 6 British guinea pigs in each group, evenly divided by sex. During the sensitization phase, the low and high dose groups received intravenous injections of 0.204 mg/mL and 0.612 mg/mL of injectable Purinostat Mesylate (1 and 3 times the maximum intended clinical concentration, respectively) at a volume of 0.5 mL per guinea pig. The blank formulation group received intravenous injections of the excipient in the same volume as the high dose group. The negative control group received an equal volume of 0.9% sodium chloride injection, while the positive control group received an intraperitoneal injection of 4 mg of ovalbumin solution per guinea pig. Sensitization was performed once every other day for a total of 3 consecutive sensitizations. On days 14 and 21 after the last sensitization, each group received an intravenous injection of 2 times the sensitizing dose to provoke an allergic response. Reactions and mortality were observed 30 minutes after the provocation injection.

[5] = Pharmacokinetics, intravenous; type: in vivo, SD rats; conditions: for AUC(0-t) / half-life / Vd / clearance / C0: both sexes, SD, rat, plasma, iv; for Vd: read-out: Vdss; for clearance: read-out: plasma clearance (CL); for increase in AUC0-last for tenfold increase in dose: 1 to 10 mg/kg
Description: After a single intravenous injection of Purinostat Mesylate at doses of 1, 3, and 10 mg/kg, the average initial concentrations (C0) in male and female SD rats were 736 ± 66.5, 2880 ± 566, and 11500 ± 1790 ng/mL, respectively. […] The half-lives (T1/2) were 3.79 ± 0.511, 4.21 ± 0.248, and 6.24 ± 1.57 min, respectively. The area under the curve (AUC0-last) values were 55.3 ± 3.68, 248 ± 36.1, and 1280 ± 122 ng.h/mL, respectively. After daily intravenous injections of 3 mg/kg Purinostat Mesylate for 7 consecutive days, the average AUC0-last on day 7 for both male and female rats was 332 ± 43.6 ng.h/mL.

Question: For CN(Cc1nc2c(N3CCOCC3)nc(-c3ccc(N)cc3)nc2n1C)c1ncc(C(=O)NO)cn1.CS(=O)(=O)O [PM, 2-(((2-(4-Aminophenyl)-9-methyl-6-(4-morpholinyl)-9H-purine-8-yl)methyl)methylamino)-N-hydroxy-5-pyrimidine-carboxamide Mesylate], which mortality ([1]; 50 mg/kg) is on record?
Answer: Its mortality is “all animals dying between days 2 and 4”.

Question: And the MTD ([1]; beagle, dog, in vivo, iv, single i.v., read-out: maximum tolerated dose (MTD))?
Answer: Its MTD is 10 mg/kg.

Question: And the IC50 (HDAC4)?
Answer: The IC50 was 1070 nM.

Question: What about the IC50 ([2]; read-out: IC50, hematological tumor cells) of the same compound?
Answer: Its IC50 is < 10 nM.

Question: And the IC50 ([2]; some cell lines, read-out: IC50, hematological tumor cell lines)?
Answer: Its IC50 is < 1 nM.

Question: What about the Solubility (Solubility of the API; 0.1 mol/L hydrochloric acid solution) of the same compound?
Answer: The Solubility was “practically insoluble”.

Question: What about the Solubility (Solubility of the API; 0.1 mol/L sodium hydroxide solution) of the same compound?
Answer: The Solubility was “very slightly soluble”.

Question: And the Solubility (Solubility of the API; dimethyl sulfoxide)?
Answer: Its Solubility is “soluble”.

Question: And the Solubility (Solubility of the API; dimethylformamide)?
Answer: Its Solubility is “slightly soluble”.

Question: And the Solubility (Solubility of the API; ethanol, ethyl acetate, or chloroform)?
Answer: The Solubility was “practically insoluble”.

Question: What about the Solubility (Solubility of the API; methanol) of the same compound?
Answer: Its Solubility is “very slightly soluble”.

Question: What about the median survival time ([3]; 2.5 mg/kg, solvent control 21 days) of the same compound?
Answer: The median survival time was 66 days.

Question: And the median survival time ([3]; 10 mg/kg)?
Answer: Its median survival time is 73 days.

Question: What about the IC50 (HDAC7) of the same compound?
Answer: The IC50 was 590 nM.

Question: What about the “systemic active allergic test outcome” value [4] of the same compound?
Answer: The value was “negative”.

Question: What about the AUC(0-t) ([5]; 1 mg/kg, read-out: AUC0-last) of the same compound?
Answer: Its AUC(0-t) is 55.3 ± 3.68 ng·h/mL.

Question: What about the half-life ([5]; 1 mg/kg, read-out: T1/2) of the same compound?
Answer: Its half-life is 3.79 ± 0.511 min.

Question: What about the Vd ([5]; 1 mg/kg) of the same compound?
Answer: Its Vd is 1.43 ± 0.135 L/kg.

Question: What about the clearance ([5]; 1 mg/kg) of the same compound?
Answer: The clearance was 301 ± 20 mL/min/kg.

Question: What about the AUC(0-t) ([5]; 3 mg/kg, 3 mg/kg daily i.v. for 7 days, read-out: AUC0-last on day 7) of the same compound?
Answer: Its AUC(0-t) is 332 ± 43.6 ng·h/mL.

Question: And the AUC(0-t) ([5]; 3 mg/kg, read-out: AUC0-last)?
Answer: The AUC(0-t) was 248 ± 36.1 ng·h/mL.

Question: What about the half-life ([5]; 3 mg/kg, read-out: T1/2) of the same compound?
Answer: The half-life was 4.21 ± 0.248 min.

Question: And the Vd ([5]; 3 mg/kg)?
Answer: The Vd was 1.13 ± 0.241 L/kg.

Question: What about the clearance ([5]; 3 mg/kg) of the same compound?
Answer: Its clearance is 205 ± 36.4 mL/min/kg.

Question: And the AUC(0-t) ([5]; 10 mg/kg, read-out: AUC0-last)?
Answer: Its AUC(0-t) is 1280 ± 122 ng·h/mL.

Question: What about the half-life ([5]; 10 mg/kg, read-out: T1/2) of the same compound?
Answer: The half-life was 6.24 ± 1.57 min.

Question: What about the Vd ([5]; 10 mg/kg) of the same compound?
Answer: Its Vd is 0.948 ± 0.125 L/kg.

Question: And the clearance ([5]; 10 mg/kg)?
Answer: The clearance was 131 ± 12.8 mL/min/kg.

Question: What about the C0 ([5]; 1 mg/kg single i.v.) of the same compound?
Answer: The C0 was 736 ± 66.5 ng/mL.

Question: What about the C0 ([5]; 3 mg/kg single i.v.) of the same compound?
Answer: Its C0 is 2880 ± 566 ng/mL.

Question: And the C0 ([5]; 10 mg/kg single i.v.)?
Answer: Its C0 is 11500 ± 1790 ng/mL.

Question: What about the half-life ([5]; single i.v., range over doses, read-out: half-life) of the same compound?
Answer: Its half-life is 3.79 to 6.24 min.

Question: What about the “increase in AUC0-last for tenfold increase in dose” value ([5]; female rats) of the same compound?
Answer: The value was 24.4 fold.

Question: What about the “increase in AUC0-last for tenfold increase in dose” value ([5]; male rats) of the same compound?
Answer: Its value is 21.7 fold.
